In experiment [1] the target is T1, SPAK (Homo sapiens, UniProt Q9UEW8).
T1 construct: GST (N, cleaved yes); made in house; host or cells: E. coli EcAR7 with Sep-OTS
In words: In vitro SPAK ELISA assay monitoring NKCC1 phosphorylation (T^PNKCC1 antibody). The format is biochemical. The note with it: analogues of (6a). The protocol: The GlaxoSmithKline published kinase inhibitor set, PKIS (Dranchak, et al., 2013, Plos One 8), was used to evaluate potential SPAK drug inhibitor candidates. The pilot inhibitor screen tested the capability of 320 compounds to inhibit the kinase activity of purified co-expressed SP382 WNK1 (1-661)/WT SPAK using an ELISA based screen monitoring a reduction in NKCC1 phosphorylation with the NKCC1 phospho-specific antibody, T^PNKCC1. 10 nL of each inhibitor compound (final concentration 20 μM) or DMSO vehicle controls were added to dry 384 well-flat bottom low volume non-binding assay plates (Corning) using an Echo 550 Acoustic dispenser (Labcyte). […] The assay plates were centrifuged at 200 g for 1 min, then incubated at RT for 30 min. Following inhibitor incubation, the kinase reaction was initiated with 1 μL of 50 μM ATP (final concentration 10 uM) or 1 μL of Kinase reaction buffer for negative controls and reacted for 1 hr at 37° C. The reaction was then quenched with 5 μL Kinase Stop buffer (100 mM Tris pH 8, 300 mM NaCl, 40 mM EDTA) and incubated for 1 min with shaking at 450 rpm. 2 μL of each quenched reaction was added to 18 μL TBS (50 mM Tris pH 8, 150 mM NaCl) in white 384-well Nunc Maxisorp plates (Thermo Scientific) using a PlateMate Plus (Thermo Scientific). The plate was shaken for 1 min at 450 rpm, sealed and incubated at 4° C. overnight to allow the protein contents of the reaction to bind to the Maxisorp plate. The next morning the solution was removed, and the plates were then subjected to 3 washes in TBST (50 mM Tris pH 7.5, 150 mM NaCl. 0.05% Tween 20) for 5 min each wash with shaking at 400 rpm. The plates were blocked with TBST buffer containing 3% BSA (w/v) at RT for 2 hrs at RT. The blocking buffer was removed, and the plates were immunoblotted with 1:50,000 dilution of T^PNKCC1 in blocking buffer for 2 hrs at RT. The plates were then subjected to 3 washes in TBST for 5 min each wash with shaking at 400 rpm, followed by incubating with 1:10,000 dilution of 2° DAR-HPR antibody in blocking buffer for 1 hr at RT. The plates were washed again 3 times in TBST for 5 min each wash with shaking at 400 rpm. Signal was detected by SuperSignal ELISA Pico Chemiluminescent substrate (ThermoScientific), and read on an EnVision multi-label plate reader (Perkin-Elmer).

A further experiment deals with GBM612 cells. As to the kind of experiment: On target activity in GBM612 cells (Western blot). In kind it is cell-based, human. The note with it: on target activity in GBM cells. (Immunoblotting shows a protein as a band on a membrane.)
For experiment [2], the target named is T1, SPAK. In words: In vitro SPAK ELISA assay monitoring NKCC1 phosphorylation (T^PNKCC1 antibody). The format is biochemical. The note with it: on target activity in vitro; read-out: IC50 In vitro. (In general: ELISA stands for enzyme-linked immunosorbent assay.)
Experiment [3] concerns NKCC1 phosphorylation in mDCT15 cells. As to the kind of experiment: NKCC1 phosphorylation in mDCT15 cell lysates (T^PNKCC1 immunoblot). In kind it is cell-based, mouse. The note with it: 40 μM, span of 4 hrs. The protocol: Mouse distal convoluted tubule (mDCT15) cells (Naguro, et al., 2012, Nature comm. 3:1285) were cultured in DMEM/Ham's F-12 media supplemented with 1% PSN and 5% FBS. Before each set of experiments 2×10^5 cells/well were plated in 24-well plates treated with 100 ug/mL poly-D-lysine and grown at 37° C. in 5% CO2 to ˜95% confluency. […] […] […] All media was removed and 100 μL of cell culture lysis buffer (100 mM Tris/HCl pH 7.4, 300 mM NaCl, 5 mM EDTA, 5 mM EGTA, 2 mM DTT, 10% glycerol, 2% triton X-100, Roche protease inhibitor, and phosphatase inhibitor cocktail 3 (Sigma-Aldrich St. Louis, MO)) was added to each well, transferred to a clean 1.5 mL Eppendorf tube, and incubated on ice for a minimum of 10 min. The cell lysates were centrifuged at 21,000 G for 10 min. The clarified lysate was stored at −80° C.
Protein samples were subjected to electrophoresis on polyacrylamide gels and transferred to PVDF membranes. The membranes were incubated overnight in TBST blocking buffer containing 5% milk (w/v) (for the antibodies raised in sheep) or 3% BSA (w/v) (for all other antibodies). […] Signal was detected by enhanced chemiluminescence (Bio-rad) imaged on a ChemiDoc™ XRS+ CCD camera.

In another experiment the test system is mDCT15 cells. As to the kind of experiment: Cell volume of mDCT15 cells by microscopic imaging. In kind it is cell-based, mouse. The note with it: 40 μM, four-hour time course. The protocol:
FIGS. 12A-12F illustrate the finding that (7a) depletes phosphorylated NKCC1 and reduces cell volume in mDCT15 cells. FIG. 12A: Structures of (7a) and analog (7b). FIG. 12B: In vitro dose-dependent inhibition comparing (7a) and (7b) evaluated by western blot using T^PNKCC1. FIG. 12C: Western blot analysis of NKCC1 phospho-depletion in mDCT15 cells under various conditions. FIG. 12D: mDCT15 cells were incubated with 40 μM (7a), 40 μM Cabozantinib (XL-184), or equivalent volume of DMSO vehicle for 1 hr, 2 hr, 3 hr, and 4 hr. NKCC1 phosphorylation was monitored using the T^PNKCC1 antibody and compared to total NKCC1. FIG. 12E: HEK 293 induced to express KCC were incubated with 40 μM (7a), 40 μM Cabozantinib (XL-184), or equivalent volume of DMSO vehicle for 1 hr, and 2 hr time points. KCC phosphorylation was monitored using the T^PKCC antibody and compared to total KCC using C-Myc antibody. FIG. 12F: mDCT15 cells were incubated with 40 μM (7a), 40 μM Cabozantinib (XL-184), or equivalent volume of DMSO vehicle for a 1 hr, 2 hr, 3 hr, and 4 hr time course. After incubation the cells were imaged using 20× bright field microscopy. 1 hr and 4 hr time points are shown.
FIG. 13 comprises images of mDCT15 cells incubated with 40 μM (7a) 40 μM, Cabozantinib (XL-184), or equivalent volume of DMSO vehicle for a 1 hr, 2 hr, 3 hr, and 4 hr time course (partially shown in FIG. 12F). […]

Another experiment relates to pancreatic cancer cells. As to the kind of experiment: Pancreatic cancer cell migration in vitro. The format is cell-based. The note with it: FIG. 36.

The structures appear in SMILES notation.

One may read the IC50 as the concentration that gives 50% inhibition.

As for `COc1ccc(Nc2ncc(C#N)c(Nc3ccccc3-c3nnn[nH]3)n2)cc1N1CCN(C)CC1` [(6f), 4-((2-(1H-tetrazol-5-yl)phenyl)amino)-2-((4-methoxy-3-(4-methylpiperazin-1-yl)phenyl)amino)pyrimidine-5-carbonitrile], at SPAK [1], the SPAK inhibition entry is “measurable SPAK inhibition”. In the experiment with GBM612 cells, the “Activity in GMB612, 0.2 μM” value is on record as “No” and the “Activity in GMB612, 2 μM” value was “Yes”. For the same molecule, the IC50 on SPAK [2] was 3.5 µM.

Consider `COc1cc2nccc(Oc3ccc(NC(=O)C4(C(=O)Nc5ccc(F)cc5)CC4)cc3)c2cc1OC` [XL-184, Cabozantinib malate], for which, in experiment [3], the “NKCC1 phosphorylation over time without osmotic triggers” value is given as “no discernable effect on NKCC1 phosphorylation”. For the same molecule, the “Cell volume change, mDCT15 cells” value in the experiment on mDCT15 cells was “neither XL-184 nor Vehicle had any detectable change”.

As to `CONC(=O)c1ccccc1Nc1nc(Nc2ccc(OC)c(N3CCN(C)CC3)c2)ncc1C#N` [(6e), 2-((5-cyano-2-((4-methoxy-3-(4-methylpiperazin-1-yl)phenyl)amino)pyrimidin-4-yl)amino)-N-methoxybenzamide], the SPAK inhibition entry at SPAK [1] is “measurable SPAK inhibition”. In addition, in the experiment on GBM612 cells, the “Activity in GMB612, 0.2 μM” value is on record as “No” and the “Activity in GMB612, 2 μM” value is “Yes”. Moreover, the 50% inhibitory concentration (IC50) at SPAK [2] was found to be 2.6 µM.

On to `Nc1ccn([C@@H]2O[C@H](CO)[C@@H](O)C2(F)F)c(=O)n1` [Gemcitabine, reference compound], for which the “pancreatic cancer cell migration” value in the experiment on pancreatic cancer cells is recorded as “does not”.

On to `CNC(=O)c1ccccc1Nc1nc(Nc2ccc(OC)c(N3CCN(C)CC3)c2)ncc1C#N` [(6d), 2-((5-cyano-2-((4-methoxy-3-(4-methylpiperazin-1-yl)phenyl)amino)pyrimidin-4-yl)amino)-N-methylbenzamide], for which, on SPAK [1], the SPAK inhibition result is listed as “measurable SPAK inhibition”. In the experiment with GBM612 cells, the “Activity in GMB612, 0.2 μM” value is recorded as “No” and the “Activity in GMB612, 2 μM” value was “Yes”. The IC50 on SPAK [2] came out at 5.2 µM.

For `COc1ccc(Nc2ncc(C#N)c(Nc3cccc4c3C(=O)NC4)n2)cc1N1CCN(C)CC1` [(6b)], on SPAK [1], the SPAK inhibition result is given as “measurable SPAK inhibition”. Moreover, in the experiment on GBM612 cells, the “Activity in GMB612, 0.2 μM” value is “Yes” and the “Activity in GMB612, 2 μM” value was “Yes”. In addition, at SPAK [2], the IC50 worked out at 0.05 µM.

As to `COc1ccc(Nc2ncc(C#N)c(Nc3ccccc3-c3ncco3)n2)cc1N1CCN(C)CC1` [(6c), 2-((4-methoxy-3-(4-methylpiperazin-1-yl)phenyl)amino)-4-((2-(oxazol-2-yl)phenyl)amino)pyrimidine-5-carbonitrile], in the experiment on GBM612 cells, the “Activity in GMB612, 0.2 μM” value is “No” and the “Activity in GMB612, 2 μM” value was “No”. Moreover, the IC50 at SPAK [2] was found to be 9 µM.

`COc1ccc(Nc2ncc(C#N)c(Nc3ccccc3-c3nc[nH]n3)n2)cc1N1CCN(C)CC1` [(6g), 4-((2-(1H-1,2,4-triazol-3-yl)phenyl)amino)-2-((4-methoxy-3-(4-methylpiperazin-1-yl)phenyl)amino)pyrimidine-5-carbonitrile]: in the experiment with GBM612 cells, the “Activity in GMB612, 0.2 μM” value is given as “No” and the “Activity in GMB612, 2 μM” value is listed as “No”. For the same molecule, the half-inhibitory concentration (IC50) at SPAK [2] was 12 µM.

These data come from US12643891B2, “SPAK/OSR inhibitors and methods of using same” (YALE UNIVERSITY, priority 2019, dated 2026).
